Test results reported in US20250235424A1, “PHARMACEUTICAL COMPOSITION CONTAINING DOCETAXEL OR PHARMACEUTICALLY ACCEPTABLE SALT THEREOF AND PREPARATION METHOD THEREFOR” (WEBIOTREE CO., LTD, priority 2022, published 2025).

Experiments:
[1] = In-vivo pharmacokinetic analysis (beagle), single oral administration; conditions: dog, plasma, beagles, Docetaxel PO 50 mg/kg
From the text: The compositions of Example 83 and Comparative Example 1 were single orally administered to beagles to obtain plasma drug concentration information. The results are shown in Tables 12 and 13 below and FIGS. 8 and 9.

[2] = in vivo; conditions: rat, po, 50 mg/kg
Procedure: The graphs of FIGS. 1, 3, 5, and 6 show the docetaxel concentrations in plasma over time in rats, which were measured by collecting blood at 0 hr, 0.25 hr, 0.5 hr, 1 hr, 2 hr, 4 hr, 6 hr, 8 hr, and 12 hr.

AUC(0-t) [1]: 1.86 ng·h/mL
Cmax [1]: 0.5 ng/mL
Tmax [1]: 3.5 h
concentration at 0.25 h ([1]; 0.25 h, mean n = 2): 0.239 ng/mL
concentration at 0.5 h ([1]; 0.5 h, mean n = 2): 0.219 ng/mL
concentration at 1 h ([1]; 1 h, mean n = 2): 0.243 ng/mL
concentration at 2 h ([1]; 2 h, mean n = 2): 0.14 ng/mL
concentration at 4 h ([1]; 4 h, mean n = 2): 0.621 ng/mL
concentration at 6 h ([1]; 6 h, mean n = 2): 0.675 ng/mL
concentration at 8 h ([1]; 8 h, mean n = 2): 0.222 ng/mL
AUC(0-t) [2]: 0.85 ng·h/mL
Cmax [2]: 0.12 ng/mL
Tmax [2]: 12 h
SMILES: CC(=O)O[C@@]12CO[C@@H]1C[C@H](O)[C@@]1(C)C(=O)[C@H](O)C3=C(C)[C@@H](OC(=O)[C@H](O)[C@@H](NC(=O)OC(C)(C)C)c4ccccc4)C[C@@](O)([C@@H](OC(=O)c4ccccc4)[C@H]21)C3(C)C [Comparative Example 1, Docetaxel]
